Source: US12637471B2, “Heterocyclic compounds, compositions, methods of preparation and uses thereof” (Organon R&D Finland Ltd, priority 2021, dated 2026)

What was measured:
Type in all cases: biochemical
[1] = molecular target: T1, Recombinant human AKR1C3 (17β-HSD5) protein (Homo sapiens, UniProt P42330); assay: Inhibition of AKR1C3 (17β-hydroxysteroid dehydrogenase type 5) enzyme, fluorescence assay; details: inhibitor at 500 nM
T1 construct: made in house; host or cells: E. coli
T1 sequence (P42330 1-323): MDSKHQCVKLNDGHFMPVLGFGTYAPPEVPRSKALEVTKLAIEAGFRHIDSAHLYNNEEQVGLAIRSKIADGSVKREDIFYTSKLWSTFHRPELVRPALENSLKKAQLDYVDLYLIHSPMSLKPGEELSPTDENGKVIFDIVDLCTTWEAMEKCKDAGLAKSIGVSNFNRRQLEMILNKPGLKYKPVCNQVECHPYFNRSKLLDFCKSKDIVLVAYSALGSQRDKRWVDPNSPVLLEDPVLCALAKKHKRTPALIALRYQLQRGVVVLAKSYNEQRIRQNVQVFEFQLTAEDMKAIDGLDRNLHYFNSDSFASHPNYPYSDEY
Protocol: Inhibition of AKR1C3 (17β-Hydroxysteroid Dehydrogenase Type 5) Enzyme
Recombinant human AKR1C3 (17β-HSD5) protein (GenBank Accession No. NM_003739.6) produced in E. coli was used for screening. Recombinant protein (27 nM/1 μg/ml) was incubated in 20 mM KH2PO4, 1 mM EDTA, complete protease inhibitor cocktail, pH 7.4 with 1 μM 9-acetyl-2,3,6,7-tetrahydro-1H,5H,11H-pyrano[2,3-f]pyrido[3,2,1-ij]quinolin-11-one and 1 mM NADPH for 60 to 120 min at RT, in the presence of the potential inhibitor at 500 nM concentration. Inhibitor stock solutions were prepared in DMSO. Final concentration of DMSO was adjusted to 1% in all samples. The samples were analysed by fluorescent measurement with Tecan Spark microplate reader at wavelengths 420 nm for excitation and 510 nm for emission. Samples were evaluated against standards of 9-(1-hydroxyethyl)-2,3,6,7-tetrahydro-1H,5H,11H-pyrano[2,3-f]pyrido[3,2,1-ij]quinolin-11-one at concentrations 1 μM-10 nM. Background fluorescence was reduced from all the samples and standards. The concentrations of formed product were calculated from the standard curve with Tecan Spark Magellan software. The formed product concentrations were used to calculate conversion percentages. The inhibition percentages for the samples were calculated from the conversion percentages.
Inhibition percentages of samples were calculated using following formula: […]

[2] = molecular target: T2, Recombinant human aldo-keto reductase family 1 member C2 (AKR1C2) protein (Homo sapiens, UniProt P52895); assay: Inhibition of the aldo-keto reductase family 1 member C2, 3H-dihydrotestosterone conversion; details: inhibitor at 10 μM
T2 construct: made in house; host or cells: Sf-9 insect cells (baculovirus)
T2 sequence (P52895 1-323): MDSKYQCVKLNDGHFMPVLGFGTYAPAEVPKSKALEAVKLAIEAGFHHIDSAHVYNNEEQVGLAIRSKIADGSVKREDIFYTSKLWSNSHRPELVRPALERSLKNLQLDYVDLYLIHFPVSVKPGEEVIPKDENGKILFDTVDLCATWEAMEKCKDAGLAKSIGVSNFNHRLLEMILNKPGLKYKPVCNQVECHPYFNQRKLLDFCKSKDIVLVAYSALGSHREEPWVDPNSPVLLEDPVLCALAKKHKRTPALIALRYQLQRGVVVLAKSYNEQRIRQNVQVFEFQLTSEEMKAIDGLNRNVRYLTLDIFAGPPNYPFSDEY
Protocol: Inhibition of the Aldo-Keto Reductase Family 1 Member C2
Recombinant human aldo-keto reductase family 1 member C2 (AKR1C2) protein (GenBank Accession No. NM_001354.6) produced in Sf-9 insect cells with baculovirus was used for screening. Recombinant protein (13.6 nM/0.5 μg/ml) was incubated in 20 mM KH2PO4 pH 7.4, 1 mM EDTA, complete protease inhibitor tablet, 1 mM NADPH with 6.25 nM ^3H-labelled dihydrotestosterone for 45 min at +37° C., in the presence of the potential inhibitor at 10 μM concentration. Inhibitor stock solutions were prepared in DMSO. Final concentration of DMSO was adjusted to 1% in all samples. The enzyme reaction was stopped by addition of 10% trichloroacetic acid (final concentration 1%). Samples were filtrated through […] filtration plate (Merck). Analyses of samples was done with Waters Acquity UPLC H-class equipped with XBridge C18 column and XBridge VanGuard C18 guard column. Acetonitrile: 0.1% formic acid in water (42/58 v/v) with flow of 1.2 ml/min was used for mobile phase. The eluent was mixed with scintillant and the radioactivity was monitored in the eluate by a Scintillation Analyser. The conversion percentage of triated substrate (dihydrotestosterone) to tritiated product (5α-androstane-3α,17β-diol) for each sample was determined by the relative percentages of substrate and product in the chromatogram. The inhibition percentages of samples were calculated using following formula: […]

[3] = molecular target: T3, 17β-Hydroxysteroid Dehydrogenase Type 2 Enzyme (17β-HSD2) (Homo sapiens, UniProt P37059); assay: Inhibition of the 17β-hydroxysteroid dehydrogenase type 2 enzyme, 3H-testosterone conversion; details: inhibitor at 10 μM
T3 construct: made in house; host or cells: Sf-9 insect cells (baculovirus)
T3 sequence (P37059 1-387): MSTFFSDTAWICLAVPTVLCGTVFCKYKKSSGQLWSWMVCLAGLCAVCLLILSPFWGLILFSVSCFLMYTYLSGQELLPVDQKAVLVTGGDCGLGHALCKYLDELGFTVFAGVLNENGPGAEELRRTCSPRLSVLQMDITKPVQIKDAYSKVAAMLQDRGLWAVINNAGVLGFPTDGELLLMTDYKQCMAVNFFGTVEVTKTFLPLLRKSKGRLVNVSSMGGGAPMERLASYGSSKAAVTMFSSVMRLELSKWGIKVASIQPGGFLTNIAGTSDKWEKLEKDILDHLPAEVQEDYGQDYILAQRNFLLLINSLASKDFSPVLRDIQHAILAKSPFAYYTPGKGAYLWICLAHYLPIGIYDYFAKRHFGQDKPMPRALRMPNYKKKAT
Protocol: Inhibition of the 17β-Hydroxysteroid Dehydrogenase Type 2 Enzyme
Recombinant human 173-HSD2 protein (GenBank Accession No. NM_002153.3) produced in Sf-9 insect cells with baculovirus was used for screening.
Recombinant protein (105 nM/4.5 μg/ml) was incubated in 20 mM KH2PO4 pH 8.5, 1 mM EDTA, complete protease inhibitor cocktail, 1 mM NAD with 56.25 nM testosterone (including ^3H-labelled testosterone) for 30 min at RT, in the presence of the potential inhibitor at 10 μM concentration. Inhibitor stock solutions were prepared in DMSO. Final concentration of DMSO was adjusted to 1% in all samples. The enzyme reaction was stopped by addition of 10% trichloroacetic acid (final concentration 1%). Samples were filtrated through […] filtration plate. Analyses of samples was done with Waters Acquity UPLC H-class equipped with XBridge C18 column and XBridge VanGuard C18 guard column. Acetonitrile: 0.1% formic acid in water (42/58 v/v) with flow of 1.2 ml/min was used for mobile phase. The eluent was mixed with scintillant and the radioactivity was monitored in the eluate by a Scintillation Analyser. The conversion percentage of tritiated substrate (testosterone) to product tritiated (androstenedione) for each sample was determined by the relative percentages of substrate and product in the chromatogram. The inhibition percentages of samples were calculated using following formula: […]

SMILES | inhibition at 0.5 µM [1] [%] | inhibition at 10 µM [2] [%] | inhibition at 10 µM [3] [%]
N#CC(=C1CCN(C(=O)N2C[C@@H]3CC[C@@H]2C3)CC1)c1ccc(F)c(F)c1 [Compound 34, 2-(1-((1R,4R)-2-azabicyclo[2.2.1]heptane-2-carbonyl)piperidin-4-ylidene)-2-(3,4-difluorophenyl)acetonitrile] | 95 | 12 | 21
N#CC(=C1CCN(C(=O)N2CCc3sccc3C2)CC1)c1ccc(F)c(F)c1 [Compound 35, 2-(3,4-difluorophenyl)-2-(1-(4,5,6,7-tetrahydrothieno[3,2-c]pyridine-5-carbonyl)piperidin-4-ylidene)acetonitrile] | 96 | 27 | 28
N#CC(=C1CCN(C(=O)N2CC(C#N)C2)CC1)c1ccc(F)c(F)c1 [Compound 36, 1-(4-(cyano(3,4-difluorophenyl)methylene)piperidine-1-carbonyl)azetidine-3-carbonitrile] | 94 | 10 | -3
N#CC(=C1CCN(C(=O)N2C3CCC2COC3)CC1)c1ccc(F)cc1F [Compound 37, 2-(1-(3-oxa-8-azabicyclo[3.2.1]octane-8-carbonyl)piperidin-4-ylidene)-2-(2,4-difluorophenyl)acetonitrile] | 96 | 14 | 25
N#CC(=C1CCN(C(=O)N2CCc3nocc3C2)CC1)c1ccc(F)cc1F [Compound 38, 2-(2,4-difluorophenyl)-2-(1-(4,5,6,7-tetrahydroisoxazolo[4,3-c]pyridine-5-carbonyl)piperidin-4-ylidene)acetonitrile] | 97 | 30 | 27
N#CC(=C1CCN(C(=O)N2CCC(CO)CC2)CC1)c1ccc(F)cc1F [Compound 39, 2-(2,4-difluorophenyl)-2-(1-(4-(hydroxymethyl)piperidine-1-carbonyl)piperidin-4-ylidene)acetonitrile] | 96 | 13 | 6
N#CC(=C1CCN(C(=O)N2CC(C#N)C2)CC1)c1ccc(F)cc1F [Compound 40, 1-(4-(cyano(2,4-difluorophenyl)methylene)piperidine-1-carbonyl)azetidine-3-carbonitrile] | 95 | 14 | 5
N#CC(=C1CCN(C(=O)N2CCC(O)CC2)CC1)c1ccc(F)c(F)c1 [Compound 41, 2-(3,4-difluorophenyl)-2-(1-(4-hydroxypiperidine-1-carbonyl)piperidin-4-ylidene)acetonitrile] | 96 | 7 | 7
N#CC(=C1CCN(C(=O)N2CCC(O)CC2)CC1)c1ccc(F)cc1F [Compound 42, 2-(2,4-difluorophenyl)-2-(1-(4-hydroxypiperidine-1-carbonyl)piperidin-4-ylidene)acetonitrile] | 96 | 11 | 10
N#CC(=C1CCN(C(=O)N2CCc3[nH]ncc3C2)CC1)c1ccc(F)c(F)c1 [Compound 43, 2-(3,4-difluorophenyl)-2-(1-(4,5,6,7-tetrahydro-1H-pyrazolo[4,3-c]pyridine-5-carbonyl)piperidin-4-ylidene)acetonitrile] | 103 | 29 | 21
N#CC(=C1CCN(C(=O)N2CCn3cncc3C2)CC1)c1ccc(F)c(F)c1 [Compound 44, 2-(3,4-difluorophenyl)-2-(1-(5,6,7,8-tetrahydroimidazo[1,5-a]pyrazine-7-carbonyl)piperidin-4-ylidene)acetonitrile] | 103 | 18 | 12
N#CC(=C1CCN(C(=O)N2CCOCC2)CC1)c1cccc2[nH]ncc12 [Compound 45, 2-(1H-indazol-4-yl)-2-(1-(morpholine-4-carbonyl)piperidin-4-ylidene)acetonitrile] | 103 | 5 | 2
N#CC(=C1CCN(C(=O)N2CCn3cncc3C2)CC1)c1ccc(Cl)cc1 [Compound 46, 2-(4-chlorophenyl)-2-(1-(5,6,7,8-tetrahydroimidazo[1,5-a]pyrazine-7-carbonyl)piperidin-4-ylidene)acetonitrile] | 102 | 8 | 11
N#CC(=C1CCN(C(=O)N2CCc3sccc3C2)CC1)c1ccc(Cl)cc1 [Compound 47] | 103 | 9 | 20
N#CC(=C1CCN(C(=O)N2CCC(O)CC2)CC1)c1cccc2[nH]ncc12 [Compound 48, 2-(1-(4-hydroxypiperidine-1-carbonyl)piperidin-4-ylidene)-2-(1H-indazol-4-yl)acetonitrile] | 100 | 0 | 8
N#CC(=C1CCN(C(=O)N2CCC(CO)CC2)CC1)c1cccc2[nH]ncc12 [Compound 49, 2-(1-(4-(hydroxymethyl)piperidine-1-carbonyl)piperidin-4-ylidene)-2-(1H-indazol-4-yl)acetonitrile] | 98 | 6 | 22
